These compounds were tested against Mcl-1/Bim interaction (Homo sapiens (Human), UniProt Q07820) (assay: Cell Free Mcl-1: Bim Affinity Assay (Mcl-1 HTRF)). Conditions: TR-FRET, recombinant human Mcl-1(171-327), biotin-Bim(51-76); read-out: Mel-1 HTRF IC50.
Type: binding
Description: Cell Free Mcl-1: Bim Affinity Assay (Mcl-1 HTRF)
The inhibition of the Mcl-1/Bim interaction was measured using a time-resolved fluorescence resonance energy transfer (TR-FRET) assay. The recombinant human Mcl-1 (C-terminally 6×His tagged Mcl-1 containing residues 171-327) was generated at Amgen Inc (Thousand Oaks, Calif.). A biotinylated peptide derived from human Bim (residues 51-76) was purchased from CPC Scientific (San Jose, Calif.). The TR-FRET assay was conducted in a 384-well white OptiPlate™ (PerkinElmer, Waltham, Mass.) in a total volume of 40 μL. The reaction mixture contained 0.1 nM Mcl-1(171-327), 0.05 nM biotin-Bim(51-76), 0.05 nM LANCER Eu-W1024 Anti-6×His (PerkinElmer), 0.072 nM Streptavidin-Xlent (Cisbio, Bedford, Mass.), and serially diluted test compounds in the binding buffer of 20 mM Hepes, pH 7.5, 150 mM NaCl, 0.016 mM Brij©35, and 1 mM dithiothreitol. Test compounds were pre-incubated with Mcl-1(171-327) and biotin-Bim (51-76) for 60 min before addition of the detection mixture (LANCE Eu-W1024 Anti-6×His and Streptavidin-Xlent). The reaction plates were further incubated overnight and then were read on an Envision® multimode reader (PerkinElmer). Fluorescence signals were measured at 620 nm (40-nm bandwidth) and 665 nm (7.5-nm bandwidth) with a 60 μs delay after excitation at 320 nm (75-nm bandwidth). The signal ratio at 665/620 nm corresponded to the Mcl-1/Bim interaction and was used in all data analyses. The IC50 values of test compounds were determined from duplicate data by analyzing competition curves using a four-parameter sigmoidal model in GraphPad Prism (GraphPad Software, San Diego, Calif.) or in Genedata Screener® (Genedata, Basel, Switzerland).

Sequence of Mcl-1/Bim interaction (Q07820 171-327): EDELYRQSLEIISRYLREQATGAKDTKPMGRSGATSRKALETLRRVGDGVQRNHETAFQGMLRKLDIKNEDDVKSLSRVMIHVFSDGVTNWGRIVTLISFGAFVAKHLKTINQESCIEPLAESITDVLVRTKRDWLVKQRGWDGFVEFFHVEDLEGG

With `C[C@@H]1[C@@H](C)CCC[C@H]([C@H]2OC[C@H](N3C(=O)c4ccccc4C3=O)CO2)[C@@H]2CC[C@H]2CN2C[C@@]3(CCCc4cc(Cl)ccc43)COc3ccc(cc32)C(=O)NS1(=O)=O` (relative stereo) [Example 45] the IC50 was 4.68 nM.

What follows are compounds tested on OPM-2 (assay: Cell Viability Assay (OPM-2 10 FBS)). Conditions: OPM-2 cells, 16 h, CellTiter-Glo, read-out: OPM-2 10% FBS IC50 IP.
Type: cell-based, human
Description: Cell Viability Assay (OPM-2 10 FBS)
The human multiple myeloma cell line, OPM-2, was cultured in complete growth medium containing RPMI 1640 and 10% fetal bovine serum (FBS). Cells were seeded into 384-well plates at 3000 cells/well density in complete growth medium containing 10% FBS, and incubated for 16 h with serially diluted test compounds in a 37° C. incubator with 5% CO2. Cell viability was tested using CellTiter-Glo® assay (Promega, Madison, Wis.) according to the manufacturer recommendations. Luminescence was determined using an EnVision® Multilabel plate reader 25 min after the addition of detection reagent. IC50 values were then calculated with Xlfit using a logistical 4-parameter fit model in GraphPad Prism (GraphPad Software, San Diego, Calif.) or in Genedata Screener® (Genedata, Basel, Switzerland).

Compared with `CCN(CC)[C@H]1CO[C@@H]([C@H]2CCC[C@H](C)[C@@H](C)S(=O)(=O)NC(=O)c3ccc4c(c3)N(C[C@@H]3CC[C@H]32)C[C@@]2(CCCc3cc(Cl)ccc32)CO4)OC1` [Example 58, (1S,3′R,6′R,7′S,11′S,12′R)-6-chloro-7′-(cis-5-(diethylamino)-1,3-dioxan-2-yl)-11′,12′-dimethyl-3,4-dihydro-2H,15′H-spiro[naphthalene-1,22′-[20]oxa[13]thia[1,14]diazatetracyclo [14.7.2.0~3,6~.0~19,24~]pentacosa[16,18,24]trien]-15′-one 13′,13′-dioxide], `COC[C@@H]1[C@@H](C)CCC[C@H]([C@H]2OC[C@@H](N(C)C)CO2)[C@@H]2CC[C@H]2CN2C[C@@]3(CCCc4cc(Cl)ccc43)COc3ccc(cc32)C(=O)NS1(=O)=O` [Example 92, (1S,3′R,6′R,7′S,11′S,12′S)-6-chloro-7′-(cis-5-(dimethylamino)-1,3-dioxan-2-yl)-12′-(methoxymethyl)-11′-methyl-3,4-dihydro-2H,15′H-spiro[naphthalene-1,22′-[20]oxa[13]thia[1,14]diazatetracyclo [14.7.2.0~3,6~.0~19,24~]pentacosa[16,18,24]trien]-15′-one 13′,13′-dioxide] is 1.9-fold higher in IC50: 512 nM for the first, 988 nM for the second. The first is the more potent here.

Going from `C[C@@H]1[C@@H](C)CCC[C@H]([C@H]2OC[C@@H](N3CC(F)(F)C3)CO2)[C@@H]2CC[C@H]2CN2C[C@@]3(CCCc4cc(Cl)ccc43)COc3ccc(cc32)C(=O)NS1(=O)=O` [Example 31, (1S,3′R,6′R,7′S,11′S,12′R)-6-chloro-7′-(cis-5-(3,3-difluoro-1-azetidinyl)-1,3-dioxan-2-yl)-11′,12′-dimethyl-3,4-dihydro-2H,15′H-spiro[naphthalene-1,22′-[20]oxa[13]thia[1,14]diazatetracyclo [14.7.2.0~3,6~.0~19,24~]pentacosa[16,18,24]trien]-15′-one 13′,13′-dioxide] to `C[C@@H]1[C@@H](C)CCC[C@H]([C@H]2OC[C@@H](N3CCC3)CO2)[C@@H]2CC[C@H]2CN2C[C@@]3(CCCc4cc(Cl)ccc43)COc3ccc(cc32)C(=O)NS1(=O)=O` [Example 21, (1S,3′R,6′R,7′S,11′S,12′R)-7′-(cis-5-(1-azetidinyl)-1,3-dioxan-2-yl)-6-chloro-11′,12′-dimethyl-3,4-dihydro-2H,15′H-spiro[naphthalene-1,22′-[20]oxa[13]thia[1,14]diazatetracyclo [14.7.2.0~3,6~.0~19,24~]pentacosa[16,18,24]trien]-15′-one 13′,13′-dioxide], the IC50 rises from 204 nM to 521 nM (2.6-fold).

Going from `C[C@@H]1[C@@H](C)CCC[C@H]([C@H]2OC[C@@H](N(C)C)CO2)[C@@H]2CC[C@H]2CN2C[C@@]3(CCCc4cc(Cl)ccc43)COc3ccc(nc32)C(=O)NS1(=O)=O` (stereo in doubt) [Example 95] to `CCN(CC)[C@H]1CO[C@@H]([C@H]2CCC[C@H](C)[C@@H](C)S(=O)(=O)NC(=O)c3ccc4c(c3)N(C[C@@H]3CC[C@H]32)C[C@@]2(CCCc3cc(Cl)ccc32)CO4)OC1` [Example 57, (1S,3′R,6′R,7′S,11′S,12′R)-6-chloro-7′-(cis-5-(diethylamino)-1,3-dioxan-2-yl)-11′,12′-dimethyl-3,4-dihydro-2H,15′H-spiro[naphthalene-1,22′-[20]oxa[13]thia[1,14]diazatetracyclo [14.7.2.0~3,6~.0~19,24~]pentacosa[16,18,24]trien]-15′-one 13′,13′-dioxide], the IC50 rises from 108 nM to 164 nM (1.5-fold).

Compared with `C[C@@H]1[C@@H](C)CCC[C@H]([C@H]2OC[C@@H](N(C)C)CO2)[C@@H]2CC[C@H]2CN2C[C@@]3(CCCc4cc(Cl)ccc43)COc3ccc(nc32)C(=O)NS1(=O)=O` (stereo in doubt) [Example 94], `COC[C@@H]1[C@@H](C)CCC[C@H]([C@H]2OC[C@@H](N(C)C)CO2)[C@@H]2CC[C@H]2CN2C[C@@]3(CCCc4cc(Cl)ccc43)COc3ccc(cc32)C(=O)NS1(=O)=O` [Example 91, (1S,3′R,6′R,7′S,11′S,12′S)-6-chloro-7′-(cis-5-(dimethylamino)-1,3-dioxan-2-yl)-12′-(methoxymethyl)-11′-methyl-3,4-dihydro-2H,15′H-spiro[naphthalene-1,22′-[20]oxa[13]thia[1,14]diazatetracyclo [14.7.2.0~3,6~.0~19,24~]pentacosa[16,18,24]trien]-15′-one 13′,13′-dioxide] is 5.5-fold lower in IC50: 257 nM for the first, 47 nM for the second. The second is the more potent here.

First: COCC[C@@H]1[C@@H](C)CCC[C@H]([C@H]2OC[C@@H](N(C)C)CO2)[C@@H]2CC[C@H]2CN2C[C@@]3(CCCc4cc(Cl)ccc43)COc3ccc(cc32)C(=O)NS1(=O)=O (stereo in doubt) [Example 83]
Second: C[C@@H]1CS(=O)(=O)NC(=O)c2ccc3c(c2)N(C[C@@H]2CC[C@H]2[C@@H]([C@H]2OC[C@@H](N(C)C)CO2)CC[C@@H]1C)C[C@@]1(CCCc2cc(Cl)ccc21)CO3 [Example 84, (1S,3′R,6′R,7′S,10′S,11′S)-6-chloro-7′-(cis-5-(dimethylamino)-1,3-dioxan-2-yl)-10′,11′-dimethyl-3,4-dihydro-2H,15′H-spiro[naphthalene-1,22′-[20]oxa[13]thia[1,14]diazatetracyclo [14.7.2.0~3,6~.0~19,24~]pentacosa[16,18,24]trien]-15′-one 13′,13′-dioxide]
The IC50 of the first is 3.7-fold higher: 540 nM for the first, 145 nM for the second.

First: COC1CN([C@H]2CO[C@@H]([C@H]3CCC[C@H](C)[C@@H](C)S(=O)(=O)NC(=O)c4ccc5c(c4)N(C[C@@H]4CC[C@H]43)C[C@@]3(CCCc4cc(Cl)ccc43)CO5)OC2)C1 [Example 52, (1S,3′R,6′R,7′S,11′S,12′R)-6-chloro-7′-(cis-5-(3-methoxy-1-azetidinyl)-1,3-dioxan-2-yl)-11′,12′-dimethyl-3,4-dihydro-2H,15′H-spiro[naphthalene-1,22′-[20]oxa[13]thia[1,14]diazatetracyclo [14.7.2.0~3,6~.0~19,24~]pentacosa[16,18,24]trien]-15′-one 13′,13′-dioxide]
Second: C[C@@H]1[C@@H](C)CCC[C@H]([C@H]2OC[C@@H](N3CC(N(C)C)C3)CO2)[C@@H]2CC[C@H]2CN2C[C@@]3(CCCc4cc(Cl)ccc43)COc3ccc(cc32)C(=O)NS1(=O)=O [Example 68, (1S,3′R,6′R,7′S,11′S,12′R)-6-chloro-7′-(cis-5-(3-(dimethylamino)-1-azetidinyl)-1,3-dioxan-2-yl)-11′,12′-dimethyl-3,4-dihydro-2H,15′H-spiro[naphthalene-1,22′-[20]oxa[13]thia[1,14]diazatetracyclo [14.7.2.0~3,6~.0~19,24~]pentacosa[16,18,24]trien]-15′-one 13′,13′-dioxide]
The IC50 of the first is 8.8-fold lower: 59 nM for the first, 517 nM for the second.

Going from `C[C@@H]1[C@@H](C)CCC[C@H]([C@H]2OC[C@@H](N3CCC3)CO2)[C@@H]2CC[C@H]2CN2C[C@@]3(CCCc4cc(Cl)ccc43)COc3ccc(cc32)C(=O)NS1(=O)=O` [Example 20, (1S,3′R,6′R,7′S,11′S,12′R)-7′-(cis-5-(1-azetidinyl)-1,3-dioxan-2-yl)-6-chloro-11′,12′-dimethyl-3,4-dihydro-2H,15′H-spiro[naphthalene-1,22′-[20]oxa[13]thia[1,14]diazatetracyclo [14.7.2.0~3,6~.0~19,24~]pentacosa[16,18,24]trien]-15′-one 13′,13′-dioxide] to `C[C@@H]1[C@@H](C)CCC[C@H]([C@H]2OC[C@@H](N3CC(N(C)C)C3)CO2)[C@@H]2CC[C@H]2CN2C[C@@]3(CCCc4cc(Cl)ccc43)COc3ccc(cc32)C(=O)NS1(=O)=O` [Example 67, (1S,3′R,6′R,7′S,11′S,12′R)-6-chloro-7′-(cis-5-(3-(dimethylamino)-1-azetidinyl)-1,3-dioxan-2-yl)-11′,12′-dimethyl-3,4-dihydro-2H,15′H-spiro[naphthalene-1,22′-[20]oxa[13]thia[1,14]diazatetracyclo [14.7.2.0~3,6~.0~19,24~]pentacosa[16,18,24]trien]-15′-one 13′,13′-dioxide], the IC50 rises from 41 nM to 220 nM (5.4-fold).
